# Results from PMC12339982 (Nature Communications, 2025).
# Positions count from the first letter of the chain named.
# Key:
# TauT G62A mutant = target: T1, TauT G62A mutant (Homo sapiens, UniProt P31641, G62A); test: MST binding, TauT G62A; settings: mean ± s.e.m., n=3
# T1 sequence (P31641 1-620 G62A): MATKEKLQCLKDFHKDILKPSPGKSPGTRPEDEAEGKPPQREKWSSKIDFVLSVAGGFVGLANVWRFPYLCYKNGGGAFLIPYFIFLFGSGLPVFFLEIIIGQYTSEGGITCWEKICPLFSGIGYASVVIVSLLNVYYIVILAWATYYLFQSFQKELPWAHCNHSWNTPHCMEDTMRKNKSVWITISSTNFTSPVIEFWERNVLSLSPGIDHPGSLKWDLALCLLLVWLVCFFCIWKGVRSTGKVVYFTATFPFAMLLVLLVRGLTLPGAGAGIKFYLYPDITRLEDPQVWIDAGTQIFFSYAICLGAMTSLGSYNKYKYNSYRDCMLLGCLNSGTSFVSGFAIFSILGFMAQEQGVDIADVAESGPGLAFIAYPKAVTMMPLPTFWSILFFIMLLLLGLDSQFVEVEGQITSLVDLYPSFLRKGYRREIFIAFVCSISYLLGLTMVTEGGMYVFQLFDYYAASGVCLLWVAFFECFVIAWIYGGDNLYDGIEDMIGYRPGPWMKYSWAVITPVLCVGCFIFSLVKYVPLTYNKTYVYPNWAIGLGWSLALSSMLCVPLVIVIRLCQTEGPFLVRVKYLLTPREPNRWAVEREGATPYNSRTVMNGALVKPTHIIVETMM
# TauT S402A mutant = target: T2, TauT S402A mutant (Homo sapiens, UniProt P31641, S402A); test: MST binding, TauT S402A; settings: mean ± s.e.m., n=3
# T2 sequence (P31641 1-620 S402A): T1 sequence (P31641 1-620 G62A) with A62G, S402A
# TauT^EM = target: T3, TauT^EM (Homo sapiens, UniProt P31641, D486N/D490E/E493R/G491D/K319H/L488F/N487R/R499P/S322V/Y320N/Y489S/Y498F); test: MST binding, TauT^EM; settings: compared with TauT^WT
# T3 sequence (P31641 1-620 K319H/Y320N/S322V/D486N/N487R/L488F/Y489S/D490E/G491D/E493R/Y498F/R499P): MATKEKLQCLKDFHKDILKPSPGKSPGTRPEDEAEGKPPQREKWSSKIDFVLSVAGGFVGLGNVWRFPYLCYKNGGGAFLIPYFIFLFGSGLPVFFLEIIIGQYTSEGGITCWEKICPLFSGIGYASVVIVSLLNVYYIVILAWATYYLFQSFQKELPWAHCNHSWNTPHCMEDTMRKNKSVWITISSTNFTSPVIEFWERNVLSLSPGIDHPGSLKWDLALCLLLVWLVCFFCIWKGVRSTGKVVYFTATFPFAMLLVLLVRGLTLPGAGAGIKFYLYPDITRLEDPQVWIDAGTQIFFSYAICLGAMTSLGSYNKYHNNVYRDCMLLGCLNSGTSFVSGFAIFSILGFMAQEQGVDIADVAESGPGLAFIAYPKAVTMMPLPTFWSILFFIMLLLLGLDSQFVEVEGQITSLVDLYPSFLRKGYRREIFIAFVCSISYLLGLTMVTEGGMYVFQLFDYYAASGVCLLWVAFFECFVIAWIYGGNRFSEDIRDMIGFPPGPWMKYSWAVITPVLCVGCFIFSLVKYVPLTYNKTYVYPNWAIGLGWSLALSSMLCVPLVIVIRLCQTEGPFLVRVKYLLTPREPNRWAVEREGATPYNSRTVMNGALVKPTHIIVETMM
# TauT^WT and variants [1] = test: [3H]γ-aminobutyric acid uptake by TauT^WT and variants in HEK293T cells; assay type: cell-based, human; settings: amino acid substitutions in Gly57, Phe58, Leu306
# TauT^WT and variants [2] = target: T4, TauT^WT and variants (Homo sapiens, UniProt P31641, E406C); test: as above; assay type: cell-based; settings: mutation Glu406Cys
# T4 sequence (P31641 1-620 E406C): T1 sequence (P31641 1-620 G62A) with A62G, E406C
Structure (SMILES),Kd (MST) (TauT G62A mutant),Kd (MST) (TauT S402A mutant),"binding affinity (Kd, MST) of TauT^EM (TauT^EM)",transport activity for GABA (TauT^WT and variants [1]),transport activity of GABA (TauT^WT and variants [2])
"[H]/N=C(/N)NCC(=O)O [GAA, guanidinoacetate]",drastic loss of GAA binding affinity,,,,
"NCCS(=O)(=O)O [Taurine, taurine]",,undetectable binding,analogous to those of TauT^WT,,
"NCCCC(=O)O [GABA, γ-aminobutyric acid]",complete loss of the binding,,,decrease in transport activity,significant increase in the transport activity
